According to US20230364019A1, “Multi-targeting cell-derived nanoparticles as a versatile theranostic” (Fondazione Istituto Italiano di Tecnologia, priority 2020, published 2023):

Test system: U-251 MG cell line
Test: % cell proliferation of U-251 MG cell line after 72 h with non-encapsulated and encapsulated 3PO
Type: cell-based
Conditions: U-251 cells, inhibitor concentration 5 μM
Protocol: FIG. 5. % Cell proliferation of the U-251 MG cell line, after 72 h, using various concentrations of the non-encapsulated and encapsulated (UHT-CMNPs) model drug 3PO.
The ability of the F-CMNPs to act as drug delivery systems was also studied. […] As a proof of concept, we loaded the glucose inhibitor (2E)-3-(3-Pyridinyl)-1-(4-pyridinyl)-2-propen-1-one (3PO) in the F-CMNPs.

O=C(/C=C/c1cccnc1)c1ccncc1 [3PO, (2E)-3-(3-Pyridinyl)-1-(4-pyridinyl)-2-propen-1-one]
reduction of cells' proliferation: not affecting
